Laboratory results published in US20090048269A1 (AstraZeneca AB, priority 2007, published 2009).

target: T1, human ALK5 (Homo sapiens, UniProt P36897); assay: ALK5 Enzyme Assay 2 (fluorescence polarisation probe displacement); type: binding; design: 6His tagged human ALK5 (residues162-503) was grown and purified from insect cells; 6His; made in house; host or cells: insect cells; conditions: read-out: EAA2: activity (μM) using Enzyme Assay 2
T1 sequence (P36897 162-503): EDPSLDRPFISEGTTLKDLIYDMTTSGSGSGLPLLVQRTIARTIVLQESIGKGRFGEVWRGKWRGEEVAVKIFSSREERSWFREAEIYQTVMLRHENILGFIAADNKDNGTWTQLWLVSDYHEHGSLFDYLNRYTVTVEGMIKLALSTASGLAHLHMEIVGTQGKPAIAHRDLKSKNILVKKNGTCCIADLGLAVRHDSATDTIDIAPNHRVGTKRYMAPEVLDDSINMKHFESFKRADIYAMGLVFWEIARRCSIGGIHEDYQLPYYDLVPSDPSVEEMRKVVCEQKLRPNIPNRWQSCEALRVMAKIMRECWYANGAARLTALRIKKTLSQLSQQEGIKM
Procedure, shortened: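 Recombinant ALK5 (3 μg/mL) incubated with test compound in 50 mM HEPES pH7.4, 10 mM MgCl2, 1 mM DTT, 0.01% CHAPS. Displacement of a fluorescent quinazoline-based ALK5 probe (50 nM final) in presence of 1 μM ATP read by fluorescence polarisation.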

Row | Structure (SMILES) | IC50
1 | Cc1ccc(Oc2ccnc(Nc3cccc(CN4CCNCC4)c3)c2)c(C)n1 [Example 176, 4-(2,6-Dimethylpyridin-3-yl)oxy-N-[3-(Piperazin-1-ylmethyl)-phenyl]pyridin-2-amine] | 0.00829 µM
2 | Cc1ccc(Oc2ccnc(Nc3ccc(CO)cc3)c2)c(C)n1 [Example 154, (4-{[4-(2,6-Dimethylpyridin-3-yl)oxypyridin-2-yl]amino}phenyl)-methanol] | 0.0197 µM
3 | Cc1cc(Oc2ccnc(Nc3cccc(C(=O)N4CCCCCC4)c3)c2)c(-c2ccccn2)nc1C [Example 102, Azepan-1-yl-(3-{[4-(5,6-dimethyl-2-pyridin-2-ylpyridin-3-yl)-oxypyridin-2-yl]amino}phenyl)methanone] | 0.0113 µM
4 | Cc1ccc(Oc2ccnc(Nc3cccc(CN4CCN(C)CC4)c3)c2)c(C)n1 [Example 193, 4-(2,6-Dimethylpyridin-3-yl)oxy-N-{3-[(4-methylpiperazin-1-yl)-methyl]phenyl}pyridin-2-amine] | 0.00427 µM
5 | CC(=O)NC1CCN(C(=O)c2cccc(Nc3cc(Oc4ccc(C)nc4C)ccn3)c2)C1 (centres unmarked) [Example 65, N-[1-(3-{[4-(2,6-Dimethylpyridin-3-yl)oxypyridin-2-yl]-amino}benzoyl)pyrrolidin-3-yl]acetamide] | 0.0457 µM
6 | CC(=O)N(C)c1ccc(Nc2cc(Oc3cc(C)c(C)nc3-c3ccccn3)ccn2)cc1 [Example 83, N-(4-{[4-(5,6-Dimethyl-2-pyridin-2-ylpyridin-3-yl)oxypyridin-2-yl]-amino}phenyl)-N-methylacetamide] | 0.0259 µM
7 | Cc1ccc(Oc2ccnc(Nc3ccccn3)c2)c(-c2ccccc2)n1 [Example 150, 4-(6-Methyl-2-phenylpyridin-3-yl)oxy-N-pyridin-2-ylpyridin-2-amine] | 0.0047 µM
8 | Cc1ccc(Oc2ccnc(Nc3ccc(S(=O)(=O)NCCN4CC[C@H](F)C4)cc3)c2)c(C)n1 [Example 137] | 0.163 µM
9 | Cc1ccc(Oc2ccnc(Nc3cccc(C(=O)NCc4ncc[nH]4)c3)c2)c(C)n1 [Example 63, 3-{[4-(2,6-Dimethylpyridin-3-yl)oxypyridin-2-yl]amino}-N-(1H-imidazol-2-ylmethyl)benzamide] | 0.00823 µM
10 | Cc1ccc(Oc2ccnc(Nc3cccc(C(=O)N(C4CC4)C4CCN(C)CC4)c3)c2)c(C)n1 [Example 59, N-Cyclopropyl-3-{[4-(2,6-dimethylpyridin-3-yl)oxypyridin-2-yl]-amino}-N-(1-methylpiperidin-4-yl)benzamide] | 0.0214 µM
11 | Cc1ccc(Oc2ccnc(Nc3cccc(CN4CCN(CCN5CCNC5=O)CC4)c3)c2)c(C)n1 [Example 192, 1-(2-{4-[(3-{[4-(2,6-Dimethylpyridin-3-yl)oxypyridin-2-yl]-amino}phenyl)methyl]piperazin-1-yl}ethyl)imidazolidin-2-one] | 0.0155 µM
12 | Cc1ccc(Oc2ccnc(Nc3cccc(C(=O)N4CCN(C)CC4)c3)c2)c(C)n1 [Example 71, [3-{[4-(2,6-Dimethylpyridin-3-yl)oxypyridin-2-yl]amino}phenyl]-(4-methylpiperazin-1-yl)methanone] | 0.096 µM
13 | Cc1ccc(Oc2ccnc(Nc3ccc(C(=O)NC4CCN(C)CC4)cc3)c2)c(C)n1 [Example 130, 4-[4-(2,6-Dimethylpyridin-3-yloxy)pyridin-2-ylamino]-N-(1-methylpiperidin-4-yl)benzamide] | 0.0189 µM
14 | COC(=O)c1cccc(Nc2cc(Oc3cc(C)c(C)nc3-c3ccccn3)ccn2)c1 [Example 202, Methyl 3-{[4-(5,6-dimethyl-2-pyridin-2-ylpyridin-3-yl)oxypyridin-2-yl]amino}benzoate] | 0.0279 µM
15 | Cc1ccc(Oc2ccnc(Nc3cccc(C(=O)O)c3)c2)c(C)n1 [Example 210, Sodium 3-{[4-(2,6-dimethylpyridin-3-yl)oxypyridin-2-yl]amino}benzoate] | 0.0392 µM
16 | Cc1ccc(Oc2ccnc(Nc3ccc(S(C)(=O)=O)cc3)c2)c(C)n1 [Example 124, 4-(2,6-Dimethylpyridin-3-yl)oxy-N-(4-methylsulfonylphenyl)-pyridin-2-amine] | 0.077 µM
17 | C#CC(C)(C)NC(=O)c1cccc(Nc2cc(Oc3cc(C)c(C)nc3-c3ccccn3)ccn2)c1 [Example 103, 3-{[4-(5,6-Dimethyl-2-pyridin-2-ylpyridin-3-yl)oxypyridin-2-yl]-amino}-N-(2-methylbut-3-yn-2-yl)benzamide] | 0.0375 µM
18 | CC(=O)Nc1cc(Nc2cc(Oc3ccc(C)nc3C)ccn2)ccc1C [Example 127, N-(5-{[4-(2,6-Dimethylpyridin-3-yl)oxypyridin-2-yl]amino}-2-methylphenyl)acetamide] | 0.0145 µM
19 | Cc1ccc(Oc2ccnc(Nc3ccc(C(=O)NCCN4CCC(F)(F)CC4)cc3)c2)c(C)n1 [Example 219, N-[2-(4,4-Difluoropiperidin-1-yl)ethyl]-4-{[4-(2,6-dimethyl-pyridin-3-yl)oxypyridin-2-yl]amino}benzamide] | 0.108 µM
20 | Cc1ccc(Oc2ccnc(Nc3ccc(S(=O)(=O)NCCN4CCCCC4)cc3)c2)c(C)n1 [Example 134, 4-{[4-(2,6-Dimethylpyridin-3-yl)oxypyridin-2-yl]amino}-N-(2-piperidin-1-ylethyl)benzenesulfonamide] | 0.199 µM
21 | Cc1ccc(Oc2ccnc(Nc3cccc(CN4CCN(CC(=O)NC5CC5)CC4)c3)c2)c(C)n1 [Example 188, N-cyclopropyl-2-{4-[(3-{[4-(2,6-dimethylpyridin-3-yl)oxypyridin-2-yl]amino}phenyl)methyl]piperazin-1-yl}acetamide] | 0.00691 µM
22 | Cc1ccc(Oc2ccnc(Nc3ccc(C(N)=O)cc3)c2)c(-c2ccccn2)n1 [Example 146, 4-{[4-(6-Methyl-2-pyridin-2-ylpyridin-3-yl)oxypyridin-2-yl]-amino}benzamide] | 0.0152 µM
23 | Cc1cc(Oc2ccnc(Nc3cccc(C(=O)N4CCC4)c3)c2)c(-c2ccccn2)nc1C [Example 98, Azetidin-1-yl-(3-{[4-(5,6-dimethyl-2-pyridin-2-ylpyridin-3-yl)-oxypyridin-2-yl]amino}phenyl)methanone] | 0.0513 µM

More lines, in order of falling IC50, values ahead:

Row | IC50 | Structure (SMILES)
24 | 0.505 µM | Cc1ccc(Oc2ccnc(Nc3ccc(S(=O)(=O)N(C)CCO)cc3)c2)c(C)n1 [Example 112, 4-{[4-(2,6-Dimethylpyridin-3-yl)oxypyridin-2-yl]amino}-N-(2-hydroxyethyl)-N-methylbenzenesulfonamide]
25 | 0.256 µM | Cc1ccc(Oc2ccnc(Nc3ccc(S(=O)(=O)NCCN4CCOCC4)cc3)c2)c(C)n1 [Example 131, 4-[4-(2,6-Dimethylpyridin-3-yloxy)pyridin-2-ylamino]-N-(2-morpholinoethyl)benzenesulfonamide]
26 | 0.192 µM | Cc1ccc(Oc2ccnc(Nc3cccc(C#N)c3)c2)c(C)n1 [Example 125, 3-{[4-(2,6-Dimethylpyridin-3-yl)oxypyridin-2-yl]amino}-benzonitrile]
27 | 0.171 µM | CNS(=O)(=O)c1ccc(Nc2cc(Oc3ccc(C)nc3C)ccn2)cc1 [Example 108, 4-{[4-(2,6-Dimethylpyridin-3-yl)oxypyridin-2-yl]amino}-N-methylbenzenesulfonamide]
28 | 0.0896 µM | Cc1ccc(Oc2ccnc(Nc3cccc(CN4CCN(C(=O)Nc5ccc(F)c(Cl)c5)CC4)c3)c2)c(C)n1 [Example 180, N-(3-Chloro-4-fluorophenyl)-4-[(3-{[4-(2,6-dimethylpyridin-3-yl)oxypyridin-2-yl]amino}phenyl)methyl]piperazine-1-carboxamide]
29 | 0.0568 µM | COc1cc(Nc2cc(Oc3ccc(C)nc3C3CCCO3)ccn2)cc(OC)c1OC (centres unmarked) [Example 167, 4-[6-Methyl-2-(oxolan-2-yl)pyridin-3-yl]oxy-N-(3,4,5-trimethoxy-phenyl)pyridin-2-amine]
30 | 0.0474 µM | Cc1ccc(Oc2ccnc(Nc3ccc(C(N)=O)cc3)c2)c(-c2ccc(F)cc2)n1 [Example 157, 4-({4-[2-(4-Fluorophenyl)-6-methylpyridin-3-yl]oxypyridin-2-yl}-amino)benzamide]
31 | 0.0396 µM | Cc1cc(Oc2ccnc(Nc3cccc(OCCN4CCOCC4)c3)c2)c(-c2ccccn2)nc1C [Example 79, 4-(5,6-Dimethyl-2-pyridin-2-ylpyridin-3-yl)oxy-N-[3-(2-morpholin-4-ylethoxy)phenyl]pyridin-2-amine]
32 | 0.0183 µM | Cc1ccc(Oc2ccnc(Nc3cccc(CN4CCN(S(=O)(=O)c5cccnc5-n5cncn5)CC4)c3)c2)c(C)n1 [Example 182, 4-(2,6-Dimethylpyridin-3-yl)oxy-N-[3-({4-[2-(1,2,4-triazol-1-yl)-pyridin-3-yl]sulfonylpiperazin-1-yl}methyl)phenyl]pyridin-2-amine]
33 | 0.0148 µM | Cc1cc(Oc2ccnc(Nc3cccc(NS(C)(=O)=O)c3)c2)c(-c2ccccn2)nc1C [Example 76, N-(3-{[4-(5,6-Dimethyl-2-pyridin-2-ylpyridin-3-yl)oxypyridin-2-yl]-amino}phenyl)methanesulfonamide]
34 | 0.00903 µM | Cc1cc(Oc2ccnc(Nc3ccc(OCCCNC(=O)OC(C)(C)C)cc3)c2)c(-c2ccccn2)nc1C [Example 196, tert-Butyl N-[3-(4-{[4-(5,6-dimethyl-2-pyridin-2-ylpyridin-3-yl)-oxypyridin-2-yl]amino}phenoxy)propyl]carbamate]
35 | 0.00485 µM | Cc1cc(Oc2ccnc(Nc3ccc(C(=O)NCCN)cc3)c2)c(-c2ccccn2)nc1C [Example 200, N-(2-Aminoethyl)-4-{[4-(5,6-dimethyl-2-pyridin-2-ylpyridin-3-yl)oxypyridin-2-yl]amino}benzamide]
